Data taken from patent publication US9487529B2, “Macrocyclic compounds as ALK, FAK and JAK2 inhibitors” (Cephalon, Inc., priority 2011, dated 2016).
Structures can show the parent of a compound that is named as a salt. Where two headings read alike, the source gives them in different places.

How the values were obtained:
Format in all cases: biochemical
[1] = molecular target: T1, baculovirus-expressed ALK (Homo sapiens, UniProt Q9UM73); assay: ALK Kinase Assay (ELISA/TRF); conditions: 1 μM ATP (Km level); average of two or more determinations; class symbols
T1 construct: host or cells: baculovirus expression system
Protocol: Briefly, each 96-well plate was coated with 100 μL/well of 10 μg/mL substrate (GST-PLC-γ) in Tris-buffered saline (TBS). […] The reaction was initiated by adding enzyme (30 ng/mL ALK) and was allowed to proceed at 37° C. for 15 minutes. Detection of the phosphorylated product was performed by adding 100 μL/well of Eu—N1 labeled PT66 antibody (Perkin Elmer #AD0041). […] Data analysis was performed using ActivityBase (IDBS, Guilford, UK). IC50 values were calculated by plotting percent inhibition versus log10 of the concentration of compound and fitting to the nonlinear regression sigmoidal dose-response (variable slope) equation in XLFit (IDBS, Guilford, UK).

recombinant human FAK = molecular target: T2, recombinant human FAK (Homo sapiens, UniProt Q05397); assay: FAK Enzyme Assay (TRF detection); conditions: 10 μM ATP; average of two or more determinations; class symbols
T2 construct: purchased Invitrogen PV3832; host or cells: baculovirus expression system
Protocol: Example compounds were tested for their ability to inhibit the kinase activity of baculovirus-expressed recombinant human FAK using the TRF detection system as described above for JAK2. IC50 runs were performed in 96-well Costar high binding plates (#3922). The plates were coated first with 100 μL/well of 10 μg/mL neutravidin in TBS at 37° C. for 2 h, followed by 100 μL/well of 1 μg/mL 15-mer peptide substrate (biotinyl-amino-hexanoyl-EQEDEPEGDYFEWLE-amide) at 37° C. for another hour. The FAK assay mixture (total volume=100 μL/well) consisting of 20 mM HEPES, pH 7.2, 10 μM ATP, 5 mM MgCl2, 0.5 mM DTT, 0.1% BSA, and test compound (diluted in DMSO; 2.5% DMSO final in assay) was then added to the assay plate. Enzyme (10 ng/mL FAK, Invitrogen #PV3832) was added and the reaction was allowed to proceed at room temperature for 30 minutes. Detection of the phosphorylated product was performed by adding 100 μL/well of Eu—N1 labeled PY100 antibody (diluted 1:75000 in antibody dilution buffer). Samples were incubated at room temperature for 1 hour, followed by addition of 100 μL enhancement solution. Plates were agitated for 10 minutes and fluorescence of the resulting solution measured using the PerkinElmer EnVision™ 2102 (or 2104) multi-label plate reader.
(§1) Data analysis was performed using ActivityBase (IDBS, Guilford, UK). IC50 values were calculated by plotting percent inhibition versus log10 of the concentration of compound and fitting to the nonlinear regression sigmoidal dose-response (variable slope) equation in XLFit (IDBS, Guilford, UK).

[2] = molecular target: T3, baculovirus-expressed JAK2 (Homo sapiens, UniProt O60674); assay: JAK2 Kinase Assay (TRF detection); conditions: 0.2 μM ATP; average of two or more determinations; class symbols
T3 construct: host or cells: baculovirus expression system
Protocol: Compounds were tested for their ability to inhibit the kinase activity of baculovirus-expressed JAK2 using the TRF detection system. IC50 runs were conducted in 96-well Costar high binding plates (Corning Costar #3922, Corning, N.Y.). The plates were coated first with 100 μL/well of 10 μg/mL Neutravidin (Pierce #31000, Rockford, Ill.) in TBS at 37° C. for 2 hours, followed by 100 μL/well of 1 μg/mL 15-mer peptide substrate (biotinyl-amino-hexanoyl-EQEDEPEGDYFEWLE-amide, Infinity Biotech Research and Resource, Aston, Pa.) at 37° C. for another hour. The JAK2 assay mixture (total volume=100 μL/well) consisting of 20 mM HEPES, pH 7.2, 0.2 μM ATP, 1 mM MnCl2, 0.1% BSA, and test compound (diluted in DMSO; 2.5% DMSO final in assay) was then added to the assay plate. Enzyme (15 ng/ml JAK2) was added and the reaction was allowed to proceed at room temperature for 20 minutes. Detection of the phosphorylated product was performed by adding 100 μL/well of Eu—N1 labeled PY100 antibody (PerkinElmer Life Sciences #AD0041, Boston, Mass.). Incubation at the room temperature then proceeded for 1 hour, followed by addition of 100 μl enhancement solution (PerkinElmer Life Sciences #1244-105, Boston, Mass.). The plate was gently agitated and after thirty minutes, the fluorescence of the resulting solution was measured using the PerkinElmer EnVision™ 2102 (or 2104) multi-label plate reader.
as §1

[3] = molecular target: T4, human insulin receptor cytoplasmic domain (βIRCD) (Homo sapiens, UniProt P06213); assay: Insulin Receptor Kinase Assay (TRF); conditions: 20 μM ATP, read-out: IR IC50
T4 construct: human insulin receptor cytoplasmic domain (βIRCD); host or cells: baculovirus expression system
Protocol: Example compounds were tested for their ability to inhibit the kinase activity of baculovirus-expressed human insulin receptor cytoplasmic domain (βIRCD) using the TRF assay as described above for ALK. Phosphorylation of the substrate, recombinant GST-PLC-γ, was detected with a europium-labeled anti-phosphotyrosine antibody and measured by TRF. Each 96-well plate (Greiner#655074) was coated with 100 μL/well of 20 μg/mL substrate solution in TBS. The IR assay mixture (total volume=100 μL/well) consisting of 20 mM HEPES (pH 7.2), 20 μM ATP, 5 mM MnCl2, 0.1% BSA, and test compound (diluted in DMSO; 2.5% DMSO final in assay) was added to the assay plates. Enzyme (20 ng/mL βIRCD) was added and the reaction was allowed to proceed at room temperature for 20 minutes. Detection of the phosphorylated product was performed by adding 100 μL/well of Eu—N1 labeled PY100 antibody (PerkinElmer#AD0160; diluted 1:10,000 in TBS-T containing 0.25% BSA). Incubation at 37° C. for 1 hour was followed by addition of 50 μL enhancement solution (Wallace#1244-105). Plates were agitated for 10 minutes and the fluorescence was measured using the PerkinElmer EnVision™ 2102 or 2104 multi-label plate reader.
as §1

[4] = average of two or more determinations, class symbols

T3 sequence (O60674 whole entry): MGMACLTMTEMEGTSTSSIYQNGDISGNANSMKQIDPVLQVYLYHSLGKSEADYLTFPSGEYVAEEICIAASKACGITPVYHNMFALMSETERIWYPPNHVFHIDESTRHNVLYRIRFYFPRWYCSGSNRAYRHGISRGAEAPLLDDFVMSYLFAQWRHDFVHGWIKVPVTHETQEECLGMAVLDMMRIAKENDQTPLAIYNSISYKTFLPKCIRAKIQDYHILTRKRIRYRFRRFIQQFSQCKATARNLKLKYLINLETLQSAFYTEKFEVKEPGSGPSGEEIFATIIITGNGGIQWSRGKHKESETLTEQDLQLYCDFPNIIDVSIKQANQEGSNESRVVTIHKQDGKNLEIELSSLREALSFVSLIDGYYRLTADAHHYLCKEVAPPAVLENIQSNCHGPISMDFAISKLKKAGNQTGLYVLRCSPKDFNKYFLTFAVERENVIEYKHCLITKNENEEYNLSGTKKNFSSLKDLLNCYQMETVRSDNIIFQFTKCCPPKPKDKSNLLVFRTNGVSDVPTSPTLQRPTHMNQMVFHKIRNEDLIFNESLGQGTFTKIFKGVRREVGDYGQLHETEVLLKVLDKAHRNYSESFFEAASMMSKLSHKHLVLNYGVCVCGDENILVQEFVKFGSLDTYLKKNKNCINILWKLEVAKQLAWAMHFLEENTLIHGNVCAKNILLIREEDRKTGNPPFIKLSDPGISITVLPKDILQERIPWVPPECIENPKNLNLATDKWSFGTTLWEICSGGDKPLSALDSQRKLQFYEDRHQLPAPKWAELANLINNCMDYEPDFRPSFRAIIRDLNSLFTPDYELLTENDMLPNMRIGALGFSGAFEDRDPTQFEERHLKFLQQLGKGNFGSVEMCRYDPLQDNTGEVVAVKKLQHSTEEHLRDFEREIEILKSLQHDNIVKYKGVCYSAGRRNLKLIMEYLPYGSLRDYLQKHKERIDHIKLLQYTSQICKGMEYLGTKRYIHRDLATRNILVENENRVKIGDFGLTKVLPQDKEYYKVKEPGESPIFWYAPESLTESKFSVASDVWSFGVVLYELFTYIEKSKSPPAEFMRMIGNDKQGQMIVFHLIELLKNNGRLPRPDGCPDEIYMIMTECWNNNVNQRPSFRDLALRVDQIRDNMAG
T2 sequence (Q05397 whole entry): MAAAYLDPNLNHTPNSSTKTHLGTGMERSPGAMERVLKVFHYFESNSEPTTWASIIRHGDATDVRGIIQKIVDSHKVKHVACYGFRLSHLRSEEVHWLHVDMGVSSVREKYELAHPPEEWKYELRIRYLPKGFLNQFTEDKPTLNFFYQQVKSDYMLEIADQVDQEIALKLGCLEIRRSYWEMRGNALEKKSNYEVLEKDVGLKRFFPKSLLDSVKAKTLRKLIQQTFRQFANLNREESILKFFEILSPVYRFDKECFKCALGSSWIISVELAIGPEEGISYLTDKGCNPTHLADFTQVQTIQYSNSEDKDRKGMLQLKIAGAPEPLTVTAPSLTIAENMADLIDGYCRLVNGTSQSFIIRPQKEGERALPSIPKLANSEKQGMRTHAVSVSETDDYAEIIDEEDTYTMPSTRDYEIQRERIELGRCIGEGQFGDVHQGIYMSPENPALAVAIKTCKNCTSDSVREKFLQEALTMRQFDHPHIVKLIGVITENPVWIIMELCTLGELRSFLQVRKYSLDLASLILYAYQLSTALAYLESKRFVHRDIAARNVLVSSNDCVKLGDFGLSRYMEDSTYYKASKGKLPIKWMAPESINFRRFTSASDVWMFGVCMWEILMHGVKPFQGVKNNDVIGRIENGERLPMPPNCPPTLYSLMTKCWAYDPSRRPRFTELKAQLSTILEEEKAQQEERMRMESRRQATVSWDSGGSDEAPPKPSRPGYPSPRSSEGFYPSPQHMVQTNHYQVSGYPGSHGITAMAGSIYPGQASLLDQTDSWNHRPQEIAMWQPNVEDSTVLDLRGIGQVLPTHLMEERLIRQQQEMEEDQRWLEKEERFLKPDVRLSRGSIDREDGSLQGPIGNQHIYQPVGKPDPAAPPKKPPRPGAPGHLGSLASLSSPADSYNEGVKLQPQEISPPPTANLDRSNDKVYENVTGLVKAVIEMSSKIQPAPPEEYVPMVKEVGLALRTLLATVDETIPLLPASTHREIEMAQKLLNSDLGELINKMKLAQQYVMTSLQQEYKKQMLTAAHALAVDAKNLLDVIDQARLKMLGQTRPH
T1 sequence (Q9UM73 19-1620): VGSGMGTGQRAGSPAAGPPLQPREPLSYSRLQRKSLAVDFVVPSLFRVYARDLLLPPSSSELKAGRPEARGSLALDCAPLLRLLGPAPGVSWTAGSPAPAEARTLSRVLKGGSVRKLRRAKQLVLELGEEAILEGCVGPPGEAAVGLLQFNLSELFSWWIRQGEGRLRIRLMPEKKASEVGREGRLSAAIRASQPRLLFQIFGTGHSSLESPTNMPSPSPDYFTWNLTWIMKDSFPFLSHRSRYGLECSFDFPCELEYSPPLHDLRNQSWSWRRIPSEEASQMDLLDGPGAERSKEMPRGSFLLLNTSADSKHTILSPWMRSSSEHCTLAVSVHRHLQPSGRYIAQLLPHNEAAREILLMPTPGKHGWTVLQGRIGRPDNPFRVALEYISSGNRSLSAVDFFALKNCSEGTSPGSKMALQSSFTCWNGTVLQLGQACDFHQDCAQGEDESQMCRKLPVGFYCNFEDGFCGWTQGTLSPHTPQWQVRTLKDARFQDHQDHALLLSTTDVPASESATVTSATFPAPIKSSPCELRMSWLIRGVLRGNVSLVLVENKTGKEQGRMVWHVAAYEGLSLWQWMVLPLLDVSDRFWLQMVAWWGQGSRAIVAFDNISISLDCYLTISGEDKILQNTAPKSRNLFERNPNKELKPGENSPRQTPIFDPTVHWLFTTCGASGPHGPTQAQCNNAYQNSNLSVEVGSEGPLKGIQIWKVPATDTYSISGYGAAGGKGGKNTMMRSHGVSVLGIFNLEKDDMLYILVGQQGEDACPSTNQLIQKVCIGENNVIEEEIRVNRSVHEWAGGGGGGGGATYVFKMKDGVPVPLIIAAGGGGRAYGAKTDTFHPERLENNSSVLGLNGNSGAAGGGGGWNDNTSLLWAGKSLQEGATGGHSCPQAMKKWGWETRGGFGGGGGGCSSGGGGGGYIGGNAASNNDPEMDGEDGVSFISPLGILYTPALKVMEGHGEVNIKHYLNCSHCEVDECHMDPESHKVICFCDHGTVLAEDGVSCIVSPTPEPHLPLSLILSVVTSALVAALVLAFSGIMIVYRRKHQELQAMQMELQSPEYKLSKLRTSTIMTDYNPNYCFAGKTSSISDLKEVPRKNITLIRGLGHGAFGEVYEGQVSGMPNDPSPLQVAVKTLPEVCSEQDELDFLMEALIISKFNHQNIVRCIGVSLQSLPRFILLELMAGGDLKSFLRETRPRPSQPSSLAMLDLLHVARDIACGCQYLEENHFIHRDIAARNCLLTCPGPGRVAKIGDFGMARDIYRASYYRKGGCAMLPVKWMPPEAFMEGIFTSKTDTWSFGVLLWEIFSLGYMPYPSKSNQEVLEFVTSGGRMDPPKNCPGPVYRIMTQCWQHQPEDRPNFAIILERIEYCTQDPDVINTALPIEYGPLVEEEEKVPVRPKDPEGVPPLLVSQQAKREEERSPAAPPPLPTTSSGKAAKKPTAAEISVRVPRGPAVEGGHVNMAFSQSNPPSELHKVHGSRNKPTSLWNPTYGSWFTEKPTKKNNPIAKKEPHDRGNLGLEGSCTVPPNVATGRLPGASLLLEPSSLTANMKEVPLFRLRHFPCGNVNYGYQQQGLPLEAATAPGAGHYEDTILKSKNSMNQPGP
T4 sequence (P06213 980-1382 limits assumed): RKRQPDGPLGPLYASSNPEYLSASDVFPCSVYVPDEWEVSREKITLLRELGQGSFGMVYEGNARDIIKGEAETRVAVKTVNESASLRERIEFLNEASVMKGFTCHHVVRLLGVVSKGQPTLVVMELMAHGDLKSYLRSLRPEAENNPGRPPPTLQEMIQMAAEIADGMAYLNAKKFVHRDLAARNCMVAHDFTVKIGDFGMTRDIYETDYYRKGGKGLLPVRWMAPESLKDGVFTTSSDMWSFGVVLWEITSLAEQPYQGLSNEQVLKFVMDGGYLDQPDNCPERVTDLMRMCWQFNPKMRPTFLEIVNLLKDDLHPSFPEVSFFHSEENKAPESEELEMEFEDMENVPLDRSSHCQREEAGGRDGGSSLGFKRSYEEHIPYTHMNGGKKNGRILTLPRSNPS

| IC50 [1] | IC50 (recombinant human FAK) | IC50 [2] | IC50 [3, 4] | IC50 ([3]; given as numeric bound) | Structure (SMILES) |
| --- | --- | --- | --- | --- | --- |
| > 10000 nM | > 10000 nM | 101 to 1000 nM |  |  | O=C1Nc2cccc(c2)Nc2ncc(Cl)c(n2)Nc2cccc1c2 [Example 1, 6,13,19-Triaza-4-chloro-7,14^1,3-dibenzena-1^2,4-pyrimidinacyclodocosaph-12-one] |
|  | 101 to 1000 nM | < 10 nM | 1000 to 10000 nM |  | CN1CCN(c2ccc3cc2/C=C\c2cccc(c2)Nc2nc(ncc2Cl)N3)CC1 [Example 2, (14Z)-6-Chloro-17-(4-methylpiperazin-1-yl)-2,4,8,22-tetraazatetracyclo[14.3.1.1^3,7.1^9,13]docosa-1(20),3(22),4,6,9(21),10,12,14,16,18-decaene] |
|  | 101 to 1000 nM | < 10 nM | 101 to 1000 nM |  | CN1CCN(c2ccc3cc2CCc2cccc(c2)Nc2nc(ncc2Cl)N3)CC1 [Example 3, 6-Chloro-17-(4-methylpiperazin-1-yl)-2,4,8,22-tetraazatetracyclo[14.3.1.1^3,7.1^9,13]docosa-1(20),3(22),4,6,9(21),10,12,16,18-nonaene Trifluoroacetate (1:1)] |
|  | < 10 nM | 10 to 100 nM | 10 to 100 nM |  | COc1cc(N2CCN(C)CC2)c2cc1Nc1ncc(Cl)c(n1)Nc1cc(ccc1N(C)S(C)(=O)=O)CC2 [Example 5, 6-Chloro-10-(2-methanesulfonyl-methyl-amino)-17-(4-methylpiperazin-1-yl)-19-methoxy-2,4,8,22-tetraazatetracyclo[14.3.1.1^3,7.1^9,13]docosa-1(20),3(22),4,6,9(21),10,12,16,18-nonaene Trifluoroacetate (1:1)] |
|  | < 10 nM | 101 to 1000 nM | 10 to 100 nM |  | COc1cc(N2CCN(C)CC2)c2cc1Nc1ncc(Cl)c(n1)Nc1cc(ccc1S(=O)(=O)C(C)C)CC2 [Example 6, 6-Chloro-10-(propane-2-sulfonyl)-17-(4-methylpiperazin-1-yl)-19-methoxy-2,4,8,22-tetraazatetracyclo[14.3.1.1^3,7.1^9,13]docosa-1(20),3(22),4,6,9(21),10,12,16,18-nonaene Trifluoroacetate (1:1)] |
|  | < 10 nM | < 10 nM | 101 to 1000 nM |  | CN1CCN(c2ccc3cc2CCc2ccc(N(C)S(C)(=O)=O)c(c2)Nc2nc(ncc2Cl)N3)CC1 [Example 10, 6-Chloro-10-(2-methanesulfonyl-methyl-amino)-17-(4-methylpiperazin-1-yl)-2,4,8,22-tetraazatetracyclo[14.3.1.1^3,7.1^9,13]docosa-1(20),3(22),4,6,9(21),10,12,16,18-nonaene Trifluoroacetate (1:1)] |
|  | 101 to 1000 nM | 10 to 100 nM |  | > 3000 nM | COc1ccc2cc1Nc1nc(ncc1Cl)Nc1ccc(N3CCN(C)CC3)c(c1)/C=C\2 [Example 13, (14Z)-6-Chloro-10-methoxy-17-(4-methylpiperazin-1-yl)-2,4,8,22-tetraazatetracyclo[14.3.1.1^3,7.1^9,13]docosa-1(20),3(22),4,6,9(21),10,12,14,16,18-decaene] |
|  | 10 to 100 nM | < 10 nM | 101 to 1000 nM |  | COc1ccc2cc1Nc1nc(ncc1Cl)Nc1ccc(N3CCN(C)CC3)c(c1)CC2 [Example 14, 6-Chloro-10-methoxy-17-(4-methylpiperazin-1-yl)-2,4,8,22-tetraazatetracyclo[14.3.1.1^3,7.1^9,13]docosa-1(20),3(22),4,6,9(21),10,12,16,18-nonaene Trifluoroacetate (1:1)] |
|  | 101 to 1000 nM | 10 to 100 nM | 101 to 1000 nM |  | COc1cc(N2CCN(C)CC2)c2cc1Nc1ncc(Cl)c(n1)Nc1cccc(c1)CC2 [Example 15, 6-Chloro-17-(4-methylpiperazin-1-yl)-19-methoxy-2,4,8,22-tetraazatetracyclo[14.3.1.1^3,7.1^9,13]docosa-1(20),3(22),4,6,9(21),10,12,16,18-nonaene Trifluoroacetate (1:1)] |
| 101 to 1000 nM | 101 to 1000 nM | 10 to 100 nM |  |  | CNC(=O)c1ccc2cc1Nc1nc(ncc1Cl)Nc1ccc(N3CCN(C)CC3)c(c1)/C=C\2 [Example 16, (14Z)-6-Chloro-10-(N-methylcarboxamido)-17-(4-methylpiperazin-1-yl)-2,4,8,22-tetraazatetracyclo[14.3.1.1^3,7.1^9,13]docosa-1(20),3(22),4,6,9(21),10,12,14,16,18-decaene] |
|  | < 10 nM | < 10 nM | 101 to 1000 nM |  | CNC(=O)c1ccc2cc1Nc1nc(ncc1Cl)Nc1ccc(N3CCN(C)CC3)c(c1)CC2 [Example 17, 6-Chloro-10-(N-methylcarboxamido)-17-(4-methylpiperazin-1-yl)-2,4,8,22-tetraazatetracyclo[14.3.1.1^3,7.1^9,13]docosa-1(20),3(22),4,6,9(21),10,12,16,18-nonaene Trifluoroacetate (1:1)] |
| 101 to 1000 nM | 10 to 100 nM | 10 to 100 nM |  |  | CN1CCN(c2ccc3cc2/C=C\c2ccc(S(C)(=O)=O)c(c2)Nc2nc(ncc2Cl)N3)CC1 [Example 18, (14Z)-6-Chloro-10-(methanesulfonyl)-17-(4-methylpiperazin-1-yl)-2,4,8,22-tetraazatetracyclo[14.3.1.1^3,7.1^9,13]docosa-1(20),3(22),4,6,9(21),10,12,14,16,18-decaene Trifluoroacetate (1:1)] |
|  | 10 to 100 nM | < 10 nM | 101 to 1000 nM |  | Clc1cnc2nc1Nc1cccc(c1)CCc1cc(ccc1OCCN1CCCC1)N2 [Example 23, 6-Chloro-17-[2-(pyrrolidin-1-yl)ethoxy]-2,4,8,22-tetraazatetracyclo[14.3.1.1^3,7.1^9,13]docosa-1(20),3(22),4,6,9(21),10,12,16,18-nonaene Trifluoroacetate (1:1)] |
|  | 1000 to 10000 nM | 10 to 100 nM |  |  | CN1CCN(c2ccc3cc2[C@H](O)[C@H](O)c2cccc(c2)Nc2nc(ncc2Cl)N3)CC1 [Example 27, (14R,15S)-6-chloro-17-(4-methylpiperazin-1-yl)-2,4,8,22-tetraazatetracyclo[14.3.1.1^3,7.1^9,13]docosa-1(20),3(22),4,6,9(21),10,12,16,18-nonaene-14,15-diol] |
